Among the data in ChEMBL document CHEMBL1152872, “Discovery of N-{[1-(propylsulfonyl)-4-pyridin-2-ylpiperidin-4-yl]methyl}benzamides as novel, selective and potent GlyT1 inhibitors” (Bioorg Med Chem Lett, 2009) are solubility and IC50 values, retold here.

A short description of series [1]: Solubility in water. The class given is physicochemical.
Series [2] addresses T1, Sodium- and chloride-dependent glycine transporter 1 (Homo sapiens, UniProt P48067).
T1 sequence (P48067 whole entry): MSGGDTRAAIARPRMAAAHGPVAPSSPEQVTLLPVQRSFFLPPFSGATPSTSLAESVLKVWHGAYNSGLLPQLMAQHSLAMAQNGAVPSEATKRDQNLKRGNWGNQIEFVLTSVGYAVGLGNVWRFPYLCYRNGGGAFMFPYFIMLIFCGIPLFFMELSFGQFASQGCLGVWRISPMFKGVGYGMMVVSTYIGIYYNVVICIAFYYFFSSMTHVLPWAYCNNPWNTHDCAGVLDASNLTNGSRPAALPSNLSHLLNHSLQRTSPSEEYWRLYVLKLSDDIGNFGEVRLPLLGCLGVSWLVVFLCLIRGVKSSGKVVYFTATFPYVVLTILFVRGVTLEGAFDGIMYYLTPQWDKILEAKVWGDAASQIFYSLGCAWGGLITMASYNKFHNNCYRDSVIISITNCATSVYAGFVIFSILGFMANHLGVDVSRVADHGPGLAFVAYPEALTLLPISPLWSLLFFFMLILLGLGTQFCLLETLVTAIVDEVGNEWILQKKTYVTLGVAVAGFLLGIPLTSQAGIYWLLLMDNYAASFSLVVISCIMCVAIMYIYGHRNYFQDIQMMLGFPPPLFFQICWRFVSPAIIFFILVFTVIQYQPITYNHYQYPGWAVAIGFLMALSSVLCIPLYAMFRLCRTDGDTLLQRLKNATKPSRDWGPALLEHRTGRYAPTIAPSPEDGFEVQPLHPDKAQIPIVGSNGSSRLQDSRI
Kind of series: Inhibition of glycine transporter 1 by HTS assay.

A word on the solubility: it is how much of the substance goes into solution per volume. Higher therefore signals much dissolved substance. The molecule `CCCS(=O)(=O)N1CCC(CNC(=O)c2ccc(Cl)cc2Cl)(c2ccccn2)CC1.Cl` yielded a solubility in series [1] of 850 µg/mL. Broadly, the IC50 is the midpoint of a concentration-inhibition curve. Low readings indicate higher potency, high ones lower potency. For the molecule `CCCS(=O)(=O)N1CCC(c2ccccc2)([C@H](C)NC(=O)c2c(N)cccc2Cl)CC1`, in series [2], inhibition was half-maximal at 2.6 nM (IC50). For `CCCS(=O)(=O)N1CCC(CNC(=O)c2c(Cl)ccc(Cl)c2F)(c2ccccn2)CC1.Cl`, in series [1], the solubility turned out to be 570 µg/mL.
